The text below walks through data of article PMC5374710, “Discovery of the first dual GSK3β inhibitor/Nrf2 inducer. A new multitarget therapeutic strategy for Alzheimer’s disease” (Scientific Reports, 2017).

Where two headings read alike, the source gives them in different places.

A word on the inhibition: it is the relative decrease from the control value, in per cent. What is called ΔTm is the change in melting temperature against a reference sample.

In one series the test system is Nrf2. The experiment in a line: Nrf2-dependent luciferase reporter assay in AREc32 cell line. It is filed as cell-based. The following applies: for EC50: AREc32 cells, read-out: CD (concentration required to double the luciferase reporter activity). How it is done: Thereafter, we tested the ability of the compounds to induce the Nrf2 transcription factor. We used an Nrf2-dependent luciferase reporter assay in the AREc32 cell line[45]. Cells were cultured for 24 h and then treated with increasing concentrations of compounds 5a–t (0.3, 3, 10 and 30 μM), including the known inducer sulforaphane, containing an isothiocyanate motive as positive control.
AREc32 cells were plated in 96-well white plates (2 × 10^4 cells/well). After 24 h, cells were incubated with increasing concentrations of each compound in duplicate for 24 h. AREc32 cells express constitutively the plasmid pGL-8xARE that implements 8 copies of the EpRE sequences followed by luciferase reporter gen. Therefore, Nrf2 induction is related to the activation of EpRE sequences, expressing luciferase at the same extent as EpRE sequences are activated. The Luciferase Assay System (Promega E1500), was used according to provider protocol and luminescence was quantified in an Orion II microplate luminometer (Berthold, Germany). Fold induction of luciferase activity was normalized to basal conditions. Data are expressed as CD values, expressing the concentration required to double the luciferase activity. CD values are calculated from dose-response curves generated from fold induction of control conditions vs. inducer concentration and fitted by non-linear regression and data interpolated to 2-fold induction concentration.
Breast cancer cells stably transfected to express luciferase after EpRE sequences MCF-7/AREc32 named AREc32, were kindly provided by Dr. C. Roland Wolf (University of Dundee, UK).^14 AREc32 cells were maintained in DMEM with high glucose-glutamax, supplemented with 10 % FBS, 1 % penicillin-streptomycin (10,000 units), and geneticin (0.8 mg/ml G418) at 37 °C and in a 5 % CO2- air atmosphere.^14
AREc32 cells are constitutively transfected with the pGL-8xARE luciferase reporter gene, inserted after EpRE sequences. Thus, Nrf2 translocation to the nucleus induces the activation of the EpRE sequences, expressing their target phase II antioxidant genes, and expressing luciferase at the same extent.^15 AREc32 cells were plated in 96-well white plates (2X10^4 cells/well). After 24 h, cells were incubated with increasing concentrations of each compound in duplicate for 24 h (dissolved in DMSO to give a final 0.1 % vol/vol concentration of vehicle). Each plate included non-treated cells as basal luciferase expression and tBHQ (10 µM) as positive control. TBHQ is a potent Nrf2 inducer used as control in the development of the AREc32 cells.^14 Transfected clones are selected using G418. AREc32 cells express constitutively the plasmid pGL-8xARE that implements 8 copies of the EpRE sequences followed by a luciferase reporter gene. Therefore, the induction of Nrf2 is proportional to the activation of EpRE sequences, expressing luciferase at the same extent as EpRE sequences are activated. Luciferase production is then assessed by a bioluminescence assay. The Luciferase Assay System (Promega E1500), was used according to the Promega protocol and luminescence was quantified in an Orion II microplate luminometer (Berthold, Germany). Relative Light Units (RLU) were recorded for the contents of each well. Fold induction of luciferase activity was calculated by dividing the RLU obtained for the tests wells for each treatment by the average RLU obtained for the basal conditions. Data are expressed as CD values, expressing the concentration required to double the basal luciferase activity, used to quantify the Nrf2 induction potency. CD values are calculated from dose-response curves generated from fold induction of control conditions vs. inducer concentration and fitted by non-linear regression and data interpolated to value the 2-fold induction concentration, using GraphPad Prism software (San Diego, CA, USA).
Background: A reporter such as luciferase makes a cellular process visible.

Series [1] concerns SH-SY5Y cells. The experiment in a line: Neuroprotection against okadaic acid (tau hyperphosphorylation), MTT. It is filed as cell-based. The following applies: 1 μM, 24 h pre-incubation, 18 h co-incubation with OA 20 nM.
Series [2] deals with T1, Nrf2-Keap1 protein-protein interaction (Homo sapiens, UniProt Q14145).
T1 construct: a solution of the Keap1 Kelch domain (200 nM)
T1 sequence (Q14145 321-609 limits assumed): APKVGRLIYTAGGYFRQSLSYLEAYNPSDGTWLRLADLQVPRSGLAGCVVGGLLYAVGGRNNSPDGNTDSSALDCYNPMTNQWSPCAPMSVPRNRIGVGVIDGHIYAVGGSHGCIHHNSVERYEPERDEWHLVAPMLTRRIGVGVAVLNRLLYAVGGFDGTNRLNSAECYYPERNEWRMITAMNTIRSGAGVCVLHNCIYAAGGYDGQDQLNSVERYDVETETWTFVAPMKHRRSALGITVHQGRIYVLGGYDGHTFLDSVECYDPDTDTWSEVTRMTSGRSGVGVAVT
Briefly: Fluorescence polarization assay of Nrf2-Keap1 interaction. It is filed as binding. Conditions: ligand concentration 10 µM; read-out: FP % Inhibition (± SEM). For orientation: Polarisation of emitted light reports the rotation of a fluorescent probe.
Experimental: Data are presented the means ± SEM of two experiments performed in triplicate.
The FP assay was carried out as previously described.^16,17 Inhibitors (10 µM) were plated onto untreated Corning® black 96 well plates containing a solution of the Keap1 Kelch domain (200 nM) and the fluorescent peptide FITC-β-DEETGEF-OH (1 nM) in Dulbecco’s Phosphate Buffered Saline (DPBS) at pH 7.4 (11% final DMSO concentration, 100 µL final volume). Following a 30 min incubation under slow agitation and away from light at room temperature, the plates were transferred to a PHERAstar microplate reader (BMG Labtech, Ortenberg, Germany) and the fluorescence polarisation was recorded. All measurements were recorded in triplicate.

Another series addresses T2, Keap1 Kelch domain (Homo sapiens, UniProt Q14145).
T2 construct: A solution of the Keap1 Kelch domain protein (5 µM)
Briefly: Differential scanning fluorimetry assay. It is filed as binding. Conditions: ligand concentration 10 µM. On the technique in general: In DSF a fluorescence change marks the thermal transition of the protein.

Series [3] has as its system SH-SY5Y cells. Briefly: Cytotoxicity in SH-SY5Y neuroblastoma cell line (MTT). Conditions: 24 h.
Experimental: Viability was measured as MTT reduction in presence of increasing concentrations of derivatives. Values are expressed as LD50 calculated from dose-response curves of four different concentrations.
Cells were cultured in 48-well (SH-SY5Y, 1x10^5 cells per well) or 96-well plates (HepG2, 1x10^5 cells per well) for 24 h. […] Control cells were incubated with the same concentration of DMSO (0.1 % final concentration) without any drug.
In series [4] the test system is SH-SY5Y cells. The experiment in a line: Neuroprotection against rotenone/oligomycin A (R/O), MTT. The following applies: 1 μM, 24 h pre-incubation, 24 h co-incubation with rotenone/oligomycin A 30/10 μM. In kind it is cell-based. The procedure:
Figure 5 Compounds 5a–t exert neuroprotection in in vitro models of AD. […] Then, treatments were removed and cells were co-incubated with each treatment and okadaic acid for 18 h or R/O for 24 h. Cell viability was measured by the MTT reduction assay. Values are expressed as mean ± SEM of five independent experiments in triplicate. ***p < 0.001; **p < 0.01 respect to toxic stimuli treated cells, considered as 0% of protection.
As stated in the Introduction, oxidative stress is considered one of the main causes of neuronal death in AD. Therefore, we were interested in evaluating the potential antioxidant activity of compounds 5a–t in a model of oxidative stress and energy depletion, which in turn increase cell death. For this purpose, we selected the combination of rotenone (30 μM) and oligomycin A (10 μM) (R/O) to induce neurotoxicity as a model system[23][40] to evaluate the potential neuroprotective activity of the compounds. Melatonin, a well-known antioxidant natural compound, was included as a positive control.
(§1) A pre- and co-incubation protocol was followed. Cells were pre-incubated with the corresponding compound at 1 μM in neuroblastoma cells culture medium. After 24 h, medium was removed and replaced with 1% FBS neuroblastoma culture media containing the corresponding compound (1 μM) and the toxic stimuli, the mixture of rotenone and oligomycin A (30 μM/10 μM respectively) or okadaic acid at 20 nM. Cells were co-incubated for further 24 h with the rotenone and oligomycin A solution or 18 h with the okadaic acid solution. Control cells were incubated with the same amount of DMSO without any drug. After the co-incubation period, cell viability was assessed by the MTT-reduction method.
as §1, with “A pre” for “A pre-”, “1 µM” for “1 μM”, “compound at 1 µM” for “compound (1 μM)”, “stimuli, namely a” for “stimuli, the”, “(30 µM / 10 µM” for “(30 μM/10 μM”, “drug. […]” for “drug.”
The percentage of protection was calculated as follows: the percentage of cell survival obtained with the toxic stimuli-treated cells subtracted to 100 was normalized to 100 % of cell death. The percentage of protection was obtained by subtracting the percentage of cell death in presence of the tested compound to 100%.

T2 sequence (Q14145 321-609 limits assumed): as above
Experimental for Keap1 Kelch domain: A solution of the Keap1 Kelch domain protein (5 µM) and detection dye SYPRO® orange (5X) in DPBS at pH 7.4 was added onto a qPCR plate containing the compound inhibitor (10 µM, 10% final DMSO concentration, 40 µL final volume). The plate was sealed using an optical foil seal and covered with aluminum foil to protect the dye from light. The plate was then transferred to a plate centrifuge and spun down briefly (200 G, 1 min, room temperature) to remove any bubbles and collect the solution at the bottom of the wells. Following a 30 min incubation at room temperature, the plate was placed into a 7500 Real time PCR machine and the fluorescence intensity at an excitation of 465 nm and emission of 580 nm was recorded during a temperature scan from 25 °C to 95 °C with a temperature ramping rate of 1 °C/min. All measurements were run in triplicate. Life Technologies software was used to set up the run on 7500 Software v.2.0.0 and the initial data processing was carried out on Protein thermal shift solution software. The raw data were exported to MS Excel and analysis was performed using a custom script provided by the Structural Genomics Consortium Oxford.^18 The temperature range over which the protein unfolding occurred was selected and the maximum and minimum (at temperatures below the maximum intensity) fluorescence intensities within this range were determined. The processed data were fitted to the Boltzmann equation by non-linear regression using the Origin Pro software.

For the molecule `Cc1[nH]nc2c1C(c1ccc(Br)cc1)C(C#N)=C(N)O2` (stereo not drawn) [Compound 5m, 6-Amino-4-(4-bromophenyl)-3-methyl-2,4-dihydropyrano[2,3-c]pyrazole-5-carbonitrile], in the series with Nrf2 (3 μM to 30 μM, 24 h), the “Luciferase activity increase alone versus in presence of Li (10 mM)” value was “to the same extent and without statistically significant differences”. The EC50 was 9.37 ± 1.4 µM with Nrf2 (24 h) and less than 10 µM in the series with Nrf2 (Arec32, 24 h). The “Percentage of protection against okadaic acid toxicity” value with SH-SY5Y cells [1] is reported as “over 50%”. For the same molecule, in series [2], the inhibition at 10 µM was less than 0%. Also, the ΔTm at 10 µM at Keap1 Kelch domain was -0.14 ± 0.35 °C. Moreover, the “SH-SY5Y LD50” value with SH-SY5Y cells [3] is reported as greater than 100 µM.

In the case of `COc1cccc(C2C(C#N)=C(N)Oc3n[nH]c(C)c32)c1` (stereo not drawn) [Compound 5c, 6-Amino-4-(3-methoxyphenyl)-3-methyl-2,4-dihydropyrano[2,3-c]pyrazole-5-carbonitrile], the EC50 in the series with Nrf2 (Arec32, 24 h) was determined as 11.3 ± 1.3 µM. Besides, the “Percentage of protection against R/O toxicity” value with SH-SY5Y cells [4] is 55.3%. In series [2], the inhibition at 10 µM was less than 0%. The ΔTm at 10 µM at Keap1 Kelch domain was -0.43 ± 0.49 °C. Also, the “SH-SY5Y LD50” value in the series on SH-SY5Y cells [3] is greater than 100 µM.
